One data set addresses T1, human liver FBPase (Homo sapiens, UniProt P09467).
T1 construct: host or cells: E. coli
T1 sequence (P09467 2-338 limits assumed): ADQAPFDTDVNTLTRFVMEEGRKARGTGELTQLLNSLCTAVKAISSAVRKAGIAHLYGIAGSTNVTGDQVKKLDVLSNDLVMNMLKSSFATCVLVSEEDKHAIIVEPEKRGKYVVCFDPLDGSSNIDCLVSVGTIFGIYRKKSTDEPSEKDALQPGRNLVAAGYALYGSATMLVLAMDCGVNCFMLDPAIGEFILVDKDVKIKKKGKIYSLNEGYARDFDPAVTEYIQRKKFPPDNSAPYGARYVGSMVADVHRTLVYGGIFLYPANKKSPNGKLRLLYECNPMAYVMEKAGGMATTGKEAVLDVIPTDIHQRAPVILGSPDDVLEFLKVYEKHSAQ
Kind of data set: FBPase assay (malachite green phosphate release). It counts as biochemical. The conditions noted are these: recombinant human liver FBPase, 50 μM fructose-1,6-bisphosphate, pH 7.2, 50 minutes at room temperature. How it is done:
The following tests were carried out for evaluating the inhibitory activity of the compounds of the present invention against human liver FBPase (Swissprot Data base reference PO9467, entry F16P_HUMAN).
Enzyme preparation: Human liver FBPase cDNA (NM_000507) was purchased from Origene Technologies, Inc, subcloned in a vector for expression in E. Coli., and sequenced. Recombinant human liver FBPase (hIFBPase) was purified according to the following protocol that uses heat denaturation similarly to that described by El-Maghrabi et. al. [El-Maghrabi, M. R. et al. “Isolation of a human liver fructose-1,6-bisphosphatase cDNA and expression of the protein in Escherichia coli.” J Biol Chem 268:9466-9472, 1993.]. […] Purity of the enzyme preparation was >90% as assessed by Mass spectrometry.
In vitro activity: Recombinant human liver FBPase (hIFBPase) activity was assayed through measuring the inorganic phosphate release that results from the hydrolysis of Fructose-1,6-bisphosphate by the enzyme. […] Anal. Biochem., 171:266-270, 1988], inorganic phosphate can be readily quantified by spectrophotometry at 620 nm after complexation with ammonium molybdate/malachite green reagent. […] Under these conditions, the assay was linear with time and able to detect FBPase inhibition after spectrophotometric read-out at 620 nm.

Data on three compounds can be found in patent US7964633B2, “Sulfonamide derivatives” (Hoffmann-La Roche Inc., priority 2006, dated 2011).

The term melting point denotes the temperature of the solid-liquid transition. As a reminder, the IC50 is the concentration at which inhibition is half-maximal.

For the compound `O=C(NCCSSCCNC(=O)NS(=O)(=O)c1cccc(Cl)c1)NS(=O)(=O)c1cccc(Cl)c1` [Example 3, N,N′-[dithiobis(ethane-2,1-diyliminocarbonyl)]bis(3-chlorobenzenesulfonamide)], the melting point fell in the range of 165 to 167 °C.

Regarding `O=C(NCCCCCCNC(=O)NS(=O)(=O)c1cccc(Cl)c1)NS(=O)(=O)c1cccc(Cl)c1` [Example 1], the concentration for half-maximal inhibition (IC50) at human liver FBPase was found to be 17 nM.

Take `Cc1cccc(S(=O)(=O)NC(=O)NCCCCCCNC(=O)NS(=O)(=O)c2cccc(C)c2)c1` [Example 8, N,N′-[hexane-1,6-diylbis(iminocarbonyl)]bis(3-methylbenzenesulfonamide)]: at human liver FBPase, the IC50 is 22 nM.
